According to patent US20260035387A1 (BIOGEN MA INC., priority 2022, published 2026):

Tested on: mutant Huntington (HTT) protein
Test: HTT Mutant HTRF iPSC assay (mHTT protein lowering)
Type: cell-based
Conditions: human iPSC derived from a HTT patient with a poly-Q49 mutation

**Q.** Which IC50 does the source give for `Cc1cn2cc(NC(=O)c3cc4ncc(C5CCCCN5)nc4s3)cc(F)c2n1` (stereo not shown) [Compound 144, N-(8-fluoro-2-methylimidazo[1,2-a]pyridin-6-yl)-3-(piperidin-2-yl)thieno[2,3-b]pyrazine-6-carboxamide] here?
**A.** Its IC50 is 1000 to 9000 nM.

**Q.** Which IC50 does the source give for `Cc1cn2cc(NC(=O)c3cc4ncc(C5CCNC5)nc4s3)cc(F)c2n1` (stereo not shown) [Compound 146, N-(8-fluoro-2-methylimidazo[1,2-a]pyridin-6-yl)-3-(pyrrolidin-3-yl)thieno[2,3-b]pyrazine-6-carboxamide] here?
**A.** The IC50 was under 100 nM.

**Q.** For `Cc1cn2cc(NC(=O)c3cc4ncc(C5=CCNCC5)nc4s3)cc(F)c2n1` [Compound 147, N-(8-fluoro-2-methylimidazo[1,2-a]pyridin-6-yl)-3-(1,2,3,6-tetrahydropyridin-4-yl)thieno[2,3-b]pyrazine-6-carboxamide], which IC50 is on record?
**A.** Its IC50 is under 100 nM.

**Q.** Which IC50 does the source give for `Cc1cn2cc(NC(=O)c3cc4ncc(C5CCNCC5)nc4s3)cc(F)c2n1` [Compound 148, N-(8-fluoro-2-methyl-imidazo[1,2-a]pyridin-6-yl)-3-(4-piperidyl)thieno[2,3-b]pyrazine-6-carboxamide] here?
**A.** Its IC50 is under 100 nM.

**Q.** How did the IC50 turn out when `Cc1cn2cc(NC(=O)c3cc4cnc(N5CC[C@@H](N(C)C)C5)nc4s3)cc(F)c2n1` [Compound 149, (R)-2-(3-(dimethylamino)pyrrolidin-1-yl)-N-(8-fluoro-2-methylimidazo[1,2-a]pyridin-6-yl)thieno[2,3-d]pyrimidine-6-carboxamide] was run?
**A.** The IC50 was 100 to 1000 nM.

**Q.** How did the IC50 turn out when `Cc1cn2cc(NC(=O)c3cc4cnc(N5CC[C@@H](N(C)C)C5)nc4s3)nc(C)c2n1` [Compound 150, (R)-2-(3-(dimethylamino)pyrrolidin-1-yl)-N-(2,8-dimethylimidazo[1,2-a]pyrazin-6-yl)thieno[2,3-d]pyrimidine-6-carboxamide] was run?
**A.** Its IC50 is 100 to 1000 nM.

**Q.** How did the IC50 turn out when `Cc1cn2cc(NC(=O)c3cc4cnc(N5CC[C@H](N(C)C)C5)nc4s3)nc(C)c2n1` [Compound 151, (S)-2-(3-(dimethylamino)pyrrolidin-1-yl)-N-(2,8-dimethylimidazo[1,2-a]pyrazin-6-yl)thieno[2,3-d]pyrimidine-6-carboxamide] was run?
**A.** Its IC50 is 1000 to 9000 nM.

**Q.** With `Cc1cn2cc(NC(=O)c3cc4cnc(N5CC[C@H](N(C)C)C5)nc4s3)cc(F)c2n1` [Compound 152, 2-[(3S)-3-(dimethylamino)pyrrolidin-1-yl]-N-(8-fluoro-2-methyl-imidazo[1,2-a]pyridin-6-yl)thieno[2,3-d]pyrimidine-6-carboxamide] as the compound, how does the IC50 read?
**A.** Its IC50 is 100 to 1000 nM.

**Q.** How did the IC50 turn out when `Cc1cn2cc(C(=O)Nc3cc4ccc(N5CC[C@H](N(C)C)C5)nc4s3)cc(F)c2n1` [Compound 153, N-[6-[(3S)-3-(dimethylamino)pyrrolidin-1-yl]thieno[2,3-b]pyridin-2-yl]-8-fluoro-2-methyl-imidazo[1,2-a]pyridine-6-carboxamide] was run?
**A.** The IC50 was under 100 nM.

**Q.** With `Cc1cn2cc(NC(=O)c3cc4ccc(OC5CCC(N(C)C)C5)nc4s3)cc(F)c2n1` (stereo not shown) [Compound 155, 6-((3-(dimethylamino)cyclopentyl)oxy)-N-(8-fluoro-2-methylimidazo[1,2-a]pyridin-6-yl)thieno[2,3-b]pyridine-2-carboxamide] as the compound, how does the IC50 read?
**A.** The IC50 was under 100 nM.

**Q.** `Cc1cn2cc(NC(=O)c3cc4ccc(OC5C[C@@H](C)N[C@H](C)C5)nc4s3)cc(F)c2n1` (stereo partly shown) [Compound 157] was tested. Which IC50 did it give?
**A.** The IC50 was 100 to 1000 nM.

**Q.** With `Cc1cn2cc(NC(=O)c3cc4ccc(OC5CCC6(CCN(C)CC6)C5)nc4s3)cc(F)c2n1` (stereo not shown) [Compound 160, N-(8-fluoro-2-methylimidazo[1,2-a]pyridin-6-yl)-6-((8-methyl-8-azaspiro[4.5]decan-2-yl)oxy)thieno[2,3-b]pyridine-2-carboxamide] as the compound, how does the IC50 read?
**A.** The IC50 was 100 to 1000 nM.

**Q.** How did the IC50 turn out when `Cc1cn2cc(NC(=O)c3cc4ccc(OC5CC6(CCN(C)CC6)C5)nc4s3)cc(F)c2n1` [Compound 162, N-(8-fluoro-2-methylimidazo[1,2-a]pyridin-6-yl)-6-((7-methyl-7-azaspiro[3.5]nonan-2-yl)oxy)thieno[2,3-b]pyridine-2-carboxamide] was run?
**A.** Its IC50 is 100 to 1000 nM.

**Q.** How did the IC50 turn out when `Cc1cn2cc(NC(=O)c3cc4nc(C5CCN(C)CC5)ccc4o3)cc(F)c2n1` [Compound 163, N-(8-fluoro-2-methyl-imidazo[1,2-a]pyridin-6-yl)-5-(1-methyl-4-piperidyl)furo[3,2-b]pyridine-2-carboxamide] was run?
**A.** Its IC50 is 100 to 1000 nM.

**Q.** With `COc1cc2nn(C)cc2cc1NC(=O)c1cc2nc(N3CCC(N4CCC4)C3)ccc2o1` (stereo not shown) [Compound 164, 5-(3-(azetidin-1-yl)pyrrolidin-1-yl)-N-(6-methoxy-2-methyl-2H-indazol-5-yl)furo[3,2-b]pyridine-2-carboxamide] as the compound, how does the IC50 read?
**A.** The IC50 was 100 to 1000 nM.

**Q.** How did the IC50 turn out when `Cc1cn2cc(NC(=O)c3cc4nc(N5CCN(C)CC5)ccc4o3)cc(F)c2n1` [Compound 165, N-(8-fluoro-2-methylimidazo[1,2-a]pyridin-6-yl)-5-(4-methylpiperazin-1-yl)furo[3,2-b]pyridine-2-carboxamide] was run?
**A.** The IC50 was under 100 nM.

**Q.** Which IC50 does the source give for `Cc1cn2cc(NC(=O)c3cc4nc(N5CC[C@@H](N(C)C)C5)ccc4o3)cc(F)c2n1` [Compound 166, (R)-5-(3-(dimethylamino)pyrrolidin-1-yl)-N-(8-fluoro-2-methylimidazo[1,2-a]pyridin-6-yl)furo[3,2-b]pyridine-2-carboxamide] here?
**A.** The IC50 was under 100 nM.

**Q.** How did the IC50 turn out when `COc1cc2nn(C)cc2cc1NC(=O)c1cc2nc(N3CCC4(CCCN4C)C3)ccc2o1` (stereo not shown) [Compound 167, N-(6-methoxy-2-methyl-2H-indazol-5-yl)-5-(1-methyl-1,7-diazaspiro[4.4]nonan-7-yl)furo[3,2-b]pyridine-2-carboxamide] was run?
**A.** The IC50 was under 100 nM.

**Q.** With `Cc1cn2cc(NC(=O)c3cc4nc(N5CCNCC5)ccc4o3)cc(F)c2n1` [Compound 169, N-(8-fluoro-2-methylimidazo[1,2-a]pyridin-6-yl)-5-(piperazin-1-yl)furo[3,2-b]pyridine-2-carboxamide] as the compound, how does the IC50 read?
**A.** The IC50 was under 100 nM.

**Q.** Which IC50 does the source give for `COc1cc2nn(C)cc2cc1NC(=O)c1cc2nc(N3CCC(N(C)C)C3)ccc2o1` (stereo not shown) [Compound 170, 5-(3-(dimethylamino)pyrrolidin-1-yl)-N-(6-methoxy-2-methyl-2H-indazol-5-yl)furo[3,2-b]pyridine-2-carboxamide] here?
**A.** Its IC50 is under 100 nM.

**Q.** `COc1cn2nc(C)cc2cc1NC(=O)c1cc2nc(N3C[C@@H]4CN(C)C[C@@H]43)ccc2o1` [Compound 171, N-(6-methoxy-2-methylpyrazolo[1,5-a]pyridin-5-yl)-5-((1S,5R)-3-methyl-3,6-diazabicyclo[3.2.0]heptan-6-yl)furo[3,2-b]pyridine-2-carboxamide] was tested. Which IC50 did it give?
**A.** The IC50 was 100 to 1000 nM.

**Q.** How did the IC50 turn out when `COc1cc2nn(C)cc2cc1NC(=O)c1cc2nc(N3CC[C@@H](N4CCC4)C3)ccc2o1` [Compound 172, (R)-5-(3-(azetidin-1-yl)pyrrolidin-1-yl)-N-(6-methoxy-2-methyl-2H-indazol-5-yl)furo[3,2-b]pyridine-2-carboxamide] was run?
**A.** Its IC50 is 100 to 1000 nM.

**Q.** How did the IC50 turn out when `COc1cc2nn(C)cc2cc1NC(=O)c1cc2nc(N3CC[C@H](N4CCC4)C3)ccc2o1` [Compound 173, (S)-5-(3-(azetidin-1-yl)pyrrolidin-1-yl)-N-(6-methoxy-2-methyl-2H-indazol-5-yl)furo[3,2-b]pyridine-2-carboxamide] was run?
**A.** Its IC50 is 100 to 1000 nM.

**Q.** With `Cc1cn2cc(NC(=O)c3cc4ccc(C5CCNC(C)(C)C5)nc4s3)cc(F)c2n1` (stereo not shown) [Compound 176, 6-(2,2-dimethylpiperidin-4-yl)-N-(8-fluoro-2-methylimidazo[1,2-a]pyridin-6-yl)thieno[2,3-b]pyridine-2-carboxamide] as the compound, how does the IC50 read?
**A.** Its IC50 is under 100 nM.

**Q.** `COc1cc2nn(C)cc2cc1NC(=O)c1cc2ccc(C3CCN(C)CC3)nc2s1` [Compound 178, N-(6-methoxy-2-methyl-2H-indazol-5-yl)-6-(1-methylpiperidin-4-yl)thieno[2,3-b]pyridine-2-carboxamide] was tested. Which IC50 did it give?
**A.** Its IC50 is under 100 nM.

**Q.** Which IC50 does the source give for `Cc1cn2cc(NC(=O)c3cc4ccc(C5CNC(C)C5)nc4s3)cc(F)c2n1` (stereo not shown) [Compound 179, N-(8-fluoro-2-methylimidazo[1,2-a]pyridin-6-yl)-6-(5-methylpyrrolidin-3-yl)thieno[2,3-b]pyridine-2-carboxamide] here?
**A.** Its IC50 is under 100 nM.

**Q.** How did the IC50 turn out when `Cc1cn2cc(NC(=O)c3cc4ccc(C5CCC6(CNC6)C5)nc4s3)cc(F)c2n1` (stereo not shown) [Compound 182, N-(8-fluoro-2-methylimidazo[1,2-a]pyridin-6-yl)-6-(2-azaspiro[3.4]octan-6-yl)thieno[2,3-b]pyridine-2-carboxamide] was run?
**A.** The IC50 was 100 to 1000 nM.

**Q.** `CCN1CCN(c2ccc3cc(C(=O)Nc4cc5cc(C)nn5cc4OC)sc3n2)CC1` [Compound 183, 6-(4-ethylpiperazin-1-yl)-N-(6-methoxy-2-methylpyrazolo[1,5-a]pyridin-5-yl)thieno[2,3-b]pyridine-2-carboxamide] was tested. Which IC50 did it give?
**A.** Its IC50 is under 100 nM.

**Q.** How did the IC50 turn out when `COc1nc(NC(=O)c2cc3ccc(C4CCN(C)CC4)nc3s2)cn2cc(C)nc12` [Compound 184, N-(8-methoxy-2-methylimidazo[1,2-a]pyrazin-6-yl)-6-(1-methylpiperidin-4-yl)thieno[2,3-b]pyridine-2-carboxamide] was run?
**A.** The IC50 was under 100 nM.

**Q.** `Cc1cn2cc(NC(=O)c3cc4ccc(N5C[C@@H]6C[C@H]5CN6C(C)C)nc4s3)cc(F)c2n1` [Compound 189, N-(8-fluoro-2-methylimidazo[1,2-a]pyridin-6-yl)-6-((1S,4S)-5-isopropyl-2,5-diazabicyclo[2.2.1]heptan-2-yl)thieno[2,3-b]pyridine-2-carboxamide] was tested. Which IC50 did it give?
**A.** The IC50 was under 100 nM.

**Q.** For `COc1cn2nc(C)cc2cc1NC(=O)c1cc2ccc(N3CCC(N(C)C)C3)nc2s1` (stereo not shown) [Compound 190, 6-(3-(dimethylamino)pyrrolidin-1-yl)-N-(6-methoxy-2-methylpyrazolo[1,5-a]pyridin-5-yl)thieno[2,3-b]pyridine-2-carboxamide], which IC50 is on record?
**A.** Its IC50 is under 100 nM.

**Q.** For `COc1nc(NC(=O)c2cc3ccc(N4CCC(N(C)C)C4)nc3s2)cn2cc(C)nc12` (stereo not shown) [Compound 191, 6-(3-(dimethylamino)pyrrolidin-1-yl)-N-(8-methoxy-2-methylimidazo[1,2-a]pyrazin-6-yl)thieno[2,3-b]pyridine-2-carboxamide], which IC50 is on record?
**A.** The IC50 was under 100 nM.

**Q.** `CN(C)[C@@H]1CCN(c2ccc3cc(C(=O)Nc4cc(F)c5nn(C)cc5c4)sc3n2)C1` [Compound 192, (R)-6-(3-(dimethylamino)pyrrolidin-1-yl)-N-(7-fluoro-2-methyl-2H-indazol-5-yl)thieno[2,3-b]pyridine-2-carboxamide] was tested. Which IC50 did it give?
**A.** The IC50 was under 100 nM.

**Q.** `Cc1cn2cc(NC(=O)c3cc4ccc(N5CCNC6(CC6)C5)nc4s3)nc(C)c2n1` [Compound 193, N-(2,8-dimethylimidazo[1,2-a]pyrazin-6-yl)-6-(4,7-diazaspiro[2.5]octan-7-yl)thieno[2,3-b]pyridine-2-carboxamide] was tested. Which IC50 did it give?
**A.** The IC50 was under 100 nM.
